From patent US7585839B2, “Medical uses of intercellular communication facilitating compounds” (Zealand Pharma A/S, priority 2001, dated 2009)
Where a SMILES comes first, the peptide text is derived from it. [ ]: non-standard residue; d: D form. The star is where a group is joined. Dnp = O=[N+]([O-])c1ccc(*)c([N+](=O)[O-])c1; X1 = [N-]=[N+]=Nc1cc(O)c(C(=O)*)cc1I; Hyp = O=C(O)[C@@H]1C[C@@H](O)CN1; dHyp = O=C(O)[C@H]1C[C@H](O)CN1; Pip = O=C(O)[C@@H]1CCCCN1; Thz = O=C(O)[C@@H]1CSCN1; Acm = CC(=O)NC*; Sar = CNCC(=O)O

System: calcium-induced arrythmias
Assay: Calcium-induced arrhythmia model in mice (CaCl2-induced 2nd degree AV-block)
Format: in vivo
Set-up: CaCl2 mice Score: scale not given here
Conditions: for CaCl2 mice In vivo, % / CaCl2 mice Score: calcium chloride induced arrythmia model; for In vivo activity: maximal effect, increase in time until 2nd degree AV-block relative to vehicle treated mice, i.v.
Procedure: The antiarrhythmic effects of compounds of this invention were tested in an in vivo model of calcium-induced arrythmias according to the model of Lynch et al.^[37]. […]. Commercial solutions of hypnorm and midazolam were diluted 1:1 in distilled water and one part diluted Hypnorm® is mixed with one part diluted midazolam.
The anaesthesia was induced by s.c. administration in a dose of 0.05-0.075 μl/10 gram mouse. An i.v. cannula was inserted into the tail vein. The lead II ECG signal was recorded continuously by positioning of a stainless steel ECG electrodes on the right forelimb and on the left hind limb. The ground electrode was placed on the right hind limb. The signal was amplified (×5.000-10.000) and filtered (0.1-150 Hz) via a Hugo Sachs Electronic model 689 ECG module. The analogue signal was digitised via a 12 bit data acquisition board (Data Translation model DT321) and sampled at 1000 Hz using the Notocord HEM 3.1 software for Windows NT. After a 10-min equilibration period, the test sample of drug was injected into the tail vein. Mice pre-treated with vehicle were tested as a measure of the control level in untreated animals. The injection volume was 100 μl in all experiments. Infusion of CaCl2 (30 mg/ml, 0.1 ml/min≈100 mg/kg/min (calciumchlorid-2-hydrat, Riedel-de Haën, Germany)) was started 3 min after i.v. administration of drug or vehicle.
The time lag to onset of 2nd degree AV-block was determined as the time from the start of CaCl2 infusion until the first arrhythmic event occured. An event of 2nd degree AV-block was defined as intermittent failure of the AV conduction characterised by a P-wave without the concomitant QRS complex.
Responses were expressed relative to the time until 2nd degree AV-block occurred in vehicle treated mice.

Compound | CaCl2 mice In vivo, % | CaCl2 mice Score | In vivo activity
CC(=O)NCSC[C@H](NC(=O)[C@H](Cc1ccc(O)cc1)NC(=O)[C@@H]1CCCN1C(=O)[C@@H]1C[C@@H](O)CN1C(=O)CNC(=O)[C@H](C)NC(=O)CNC(=O)[C@@H](N)CSCNC(C)=O)C(N)=O [Compound 16, H-Cys(Acm)-Gly-Ala-Gly-Hyp-Pro-Tyr-Cys(Acm)-NH2] (H-C(Acm)GAG[Hyp]PYC(Acm)-NH2) | 23 +/− 10% | 1 | + (+ refers to 15-29% increase in time until arrhythmia)
C[C@H](NC(=O)CN)C(=O)NCC(=O)N1C[C@@H](O)C[C@@H]1C(=O)N[C@@H](C)C(=O)N[C@@H](Cc1ccc(O)cc1)C(N)=O [Compound 9, H-Gly-Ala-Gly-D-Hyp-Ala-Tyr-NH2] (H-GAG[dHyp]AY-NH2) |  | 1 | + (+ refers to 15-29% increase in time until arrhythmia)
NCC(=O)N[C@@H](CCCCNc1ccc([N+](=O)[O-])cc1[N+](=O)[O-])C(=O)N[C@@H](Cc1ccc(O)cc1)C(N)=O [H-GK(DNP)Y-NH2] (H-Gly-Lys(Dnp)-Tyr-NH2) | 25 +/− 7% |  | 
Ac-Gly-Asn-Tyr-NH2 [Compound 40] | 46 +/− 9% | 2 | ++ (++ refers to 30-50% increase in time until arrhythmia)
C[C@H](NC(=O)CN)C(=O)NCC(=O)N1CCCC[C@H]1C(=O)N1CCC[C@H]1C(=O)N[C@@H](Cc1ccc(O)cc1)C(N)=O [Compound 14, H-Gly-Ala-Gly-PC-Pro-Tyr-NH2] (H-GAG[Pip]PY-NH2) | 21 +/− 11% | 1 | + (+ refers to 15-29% increase in time until arrhythmia)
3-(4-hydroxyphenyl)propionyl-Pro-Hyp-Gly-Ala-Gly-OH [HP5, reference compound] | 50 +/− 11% | 2 | ++ (++ refers to 30-50% increase in time until arrhythmia)
H-Gly-Ala-Gly-Asn-Tyr-NH2 [Compound 39] | 53 +/− 15% | 2 | +++ (+++ refers to >60% increase in time until arrhythmia)
NC(=O)C[C@@H](NC(=O)[C@@H](N)Cc1ccc(O)cc1)C(=O)NCC(=O)O [H-Y-DN-G-OH] (H-Tyr-[dN]-Gly-OH) | 39 +/− 9% |  | 
C[C@H](NC(=O)CN)C(=O)NCC(=O)N1CSC[C@H]1C(=O)N1CCC[C@H]1C(=O)N[C@@H](Cc1ccc(O)cc1)C(N)=O [Compound 12, H-Gly-Ala-Gly-T4C-Pro-Tyr-NH2] (H-GAG[Thz]PY-NH2) | 32 +/− 6% | 2 | ++ (++ refers to 30-50% increase in time until arrhythmia)
C[C@H](NC(=O)CN)C(=O)N[C@@H](CC(N)=O)C(=O)N[C@@H](Cc1ccc(O)cc1)C(N)=O [H-GANY-NH2] (H-GANY-NH2) | 21 +/− 7% |  | 
H-GAGGPY-NH2 [H-GAGGPY-NH2] | 32 +/− 9% |  | 
C[C@H](NC(=O)CN)C(=O)NCC(=O)N1C[C@@H](O)C[C@@H]1C(=O)N1CCC[C@@H]1C(=O)N[C@@H](Cc1ccc(O)cc1)C(N)=O [Compound 10, H-Gly-Ala-Gly-D-Hyp-D-Pro-Tyr-NH2] (H-GAG[dHyp][dP]Y-NH2) |  | 2 | +++ (+++ refers to >60% increase in time until arrhythmia)
C[C@H](NC(=O)CNC(=O)[C@H](CC(N)=O)NC(=O)[C@H](Cc1ccc(O)cc1)NC(=O)[C@@H]1CCCN1C(=O)[C@@H]1C[C@@H](O)CN1)C(=O)NCC(N)=O [Compound 28, H-Hyp-Pro-Tyr-Asn-Gly-Ala-Gly-NH2] (H-[Hyp]PYNGAG-NH2) |  | 2 | (+) ((+) refers to <15% in time until arrhythmia)
C[C@H](NC(=O)CN)C(=O)NCC(=O)N1CCC[C@@H]1C(=O)N[C@@H](C)C(=O)N[C@@H](Cc1ccc(O)cc1)C(N)=O [Compound 7, H-Gly-Ala-Gly-D-Pro-Ala-Tyr-NH2] (H-GAG[dP]AY-NH2) |  | 1 | 
C[C@H](NC(=O)CNC(=O)[C@@H]1C[C@@H](O)CN1C(=O)[C@@H]1CCCN1C(=O)c1cc(I)c(N=[N+]=[N-])cc1O)C(=O)NCC(N)=O [Compound 32, ASAL(mono-iodo)-Pro-Hyp-Gly-Ala-Gly-NH2] (X1-P[Hyp]GAG-NH2) |  |  | +++ (+++ refers to >60% increase in time until arrhythmia)
CC(=O)NCC(=O)N[C@@H](CC(=O)O)C(=O)N[C@@H](CC(N)=O)C(=O)N[C@@H](Cc1ccc(O)cc1)C(N)=O [Ac-G-D-N-Y-NH2] (Ac-GDNY-NH2) | 19 +/− 8% |  | 
Cyclo(Tyr-Pro-4Hyp-Gly-Ala-Gly-Asn) [Compound 3] | 59 +/− 9% | 2 | +++ (+++ refers to >60% increase in time until arrhythmia)
NC(=O)CNC(=O)[C@H](CC(N)=O)NC(=O)[C@@H](N)Cc1ccc(O)cc1 [H-YNG-NH2] (H-Tyr-Asn-Gly-NH2) | 34 +/− 9% |  | 

Compound | CaCl2 mice In vivo, % | CaCl2 mice Score | In vivo activity
C[C@H](NC(=O)CN)C(=O)NCC(=O)N1C[C@H](O)C[C@H]1C(=O)N1CCC[C@H]1C(=O)N[C@@H](Cc1ccc(O)cc1)C(=O)N[C@@H](CCCCN)C(=O)N[C@@H](CCCCN)C(=O)N[C@@H](CCCCN)C(=O)N[C@@H](CCCCN)C(=O)N[C@@H](CCCCN)C(=O)N[C@@H](CCCCN)C(N)=O [Compound 50] (H-GAG[Hyp]PYKKKKKK-NH2) | 33 +/− 17% | 2 | 
C[C@H](NC(=O)CN)C(=O)N(C)CC(=O)N1C[C@H](O)C[C@H]1C(=O)N1CCC[C@H]1C(=O)N[C@@H](Cc1ccc(O)cc1)C(N)=O [Compound 30, H-Gly-Ala-Sar-Hyp-Pro-Tyr-NH2] (H-GA[Sar][Hyp]PY-NH2) |  | 2 | ++ (++ refers to 30-50% increase in time until arrhythmia)
CC(=O)N[C@@H](Cc1ccc(O)cc1)C(=O)N1CCC[C@H]1C(=O)N1C[C@H](O)C[C@H]1C(=O)NCC(=O)N[C@@H](C)C(=O)NCC(=O)O [Compound 1, Ac-Tyr-Pro-4Hyp-Gly-Ala-Gly-OH] (Ac-YP[Hyp]GAG-OH) | 50 +/− 20% |  | + (+ refers to 15-29% increase in time until arrhythmia)
NCC(=O)NCC(=O)N[C@@H](Cc1ccc(O)cc1)C(N)=O [H-GGY-NH2] (H-Gly-Gly-Tyr-NH2) | 39 +/− 9% |  | 
CNCC(=O)N[C@@H](C)C(=O)N(C)CC(=O)N1C[C@H](O)C[C@H]1C(=O)N1CCC[C@H]1C(=O)N[C@@H](Cc1ccc(O)cc1)C(N)=O [Compound 29, H-Sar-Ala-Sar-Hyp-Pro-Tyr-NH2] (H-[Sar]A[Sar][Hyp]PY-NH2) |  | 1 | + (+ refers to 15-29% increase in time until arrhythmia)
CC(=O)N[C@@H](Cc1ccc(O)cc1)C(=O)N[C@H](CC(N)=O)C(=O)NCC(=O)O [Ac-Y-DN-G-OH] (Ac-Tyr-[dN]-Gly-OH) | 44 +/− 10% |  | 
[Pro^4]AAP10-NH2 [reference compound] | 62 +/− 9% | 3 | 
CC(=O)N[C@@H](Cc1ccc(O)cc1)C(=O)N[C@@H](CC(=O)O)C(=O)N[C@@H](CC(N)=O)C(=O)NCC(N)=O [Ac-Y-D-N-G-NH2] (Ac-YDNG-NH2) | 17 +/− 8% |  | 
H-DY-DN-G-NH2 | 25 +/− 9% | 1 | 
H-GP[Hyp]GAG-OH [AAP, reference compound] | 35 +/− 7% | 2 | 
C[C@H](NC(=O)CN)C(=O)NCC(=O)N1C[C@H](O)C[C@H]1C(=O)N1CCC[C@H]1C(=O)N[C@@H](Cc1ccc(O)cc1)C(=O)N[C@@H](CC(N)=O)C(N)=O [H-AAP-10-Asn-NH2] (H-GAG[Hyp]PYN-NH2) | 31 +/− 6% |  | 
H-GAG[Hyp]PYKKKKKK-OH [Compound 48] | 64 +/− 10% | 3 | 
NCC(=O)N[C@H](CC(N)=O)C(=O)N[C@@H](Cc1ccc(O)cc1)C(N)=O [H-G-DN-Y-NH2] (H-Gly-[dN]-Tyr-NH2) | 37 +/− 10% |  | 
3(4-hydroxyphenyl)propionyl-Pro-Hyp-Gly-Ala-Gly-Lys-Lys-Lys-Lys-Lys-Lys-OH [Compound 49] | 80 +/− 17% | 3 | 
3(4-hydroxyphenyl)propionyl-Pro-Hyp-Gly-Ala-Gly-Lys-Lys-Lys-Lys-Lys-Lys-NH2 [Compound 51] | 21 +/− 17% | 1 | 
CF3C(O)-AAP10-NH2 | 48 +/− 13% | 3 | 
C[C@H](NC(=O)CN)C(=O)NCC(=O)N1C[C@@H](O)C[C@@H]1C(=O)N1CCC[C@H]1C(=O)N[C@@H](Cc1ccc(O)cc1)C(N)=O [Compound 5, H-Gly-Ala-Gly-D-Hyp-Pro-Tyr-NH2] (H-GAG[dHyp]PY-NH2) |  | 1 | ++ (++ refers to 30-50% increase in time until arrhythmia)
H-Gly-Asn-Tyr-NH2 [Compound 41] | 58 +/− 10% | 2 | ++ (++ refers to 30-50% increase in time until arrhythmia)
